Assay results from the supplement of paper PMC10307832.

What was measured:
Experiment in all cases: relative viability (nuclei count vs DMSO), 5 days (fraction); higher = more cells survive
[1] = compound: C1/C(=C\C2=CC=CS2)/C(=O)/C(=C/C3=CC=CS3)/C1 + Nc1nc2[nH]cc(CCc3ccc(C(=O)N[C@@H](CCC(=O)O)C(=O)O)cc3)c2c(=O)[nH]1 [Pemetrexed] (partner 0.2 µM)
Method in brief: (§1)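 Relative viability was taken as the ratio of nuclei in treated wells to nuclei in vehicle wells. Lung cancer cell lines in 1536-well plates received compounds by pin tool one day after seeding, either one drug alone or a fixed anchor-drug dose plus five library-drug doses (not always all listed) in √10 steps. Nuclei were counted on 4× images after 5 days of treatment, and values are medians of duplicate plates.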

Lestaurtinib + Olaparib = compound: C[C@]12O[C@H](C[C@]1(O)CO)n1c3ccccc3c3c4c(c5c6ccccc6n2c5c31)CNC4=O [Lestaurtinib] + O=C(c1cc(Cc2n[nH]c(=O)c3ccccc23)ccc1F)N1CCN(C(=O)C2CC2)CC1 [Olaparib] (partner 8 µM)
Method in brief: as §1

[2] = compound: C[C@]12O[C@H](C[C@]1(O)CO)n1c3ccccc3c3c4c(c5c6ccccc6n2c5c31)CNC4=O [Lestaurtinib] + Cc1cc(Nc2cc(N3CCN(C)CC3)nc(Sc3ccc(NC(=O)C4CC4)cc3)n2)n[nH]1 [Tozasertib] (partner 0.1 µM)
Method in brief: as §1

[3] = compound: C1/C(=C\C2=CC=CS2)/C(=O)/C(=C/C3=CC=CS3)/C1 + O=C(CCCCCCC(=O)Nc1ccccc1)NO [Vorinostat] (partner 1 µM)
Method in brief: as §1

| Cell Line | relative viability ([1]; first compound 0.2 µM) | relative viability ([1]; first compound 0.6325 µM) | relative viability ([1]; first compound 2 µM) | relative viability ([1]; first compound 6.325 µM) | relative viability ([1]; first compound 20 µM) | relative viability (Lestaurtinib + Olaparib; first compound 0.005 µM) | relative viability (Lestaurtinib + Olaparib; first compound 0.01581 µM) | relative viability (Lestaurtinib + Olaparib; first compound 0.05 µM) | relative viability (Lestaurtinib + Olaparib; first compound 0.1581 µM) | relative viability (Lestaurtinib + Olaparib; first compound 0.5 µM) | relative viability ([2]; first compound 0.005 µM) | relative viability ([2]; first compound 0.01581 µM) | relative viability ([2]; first compound 0.05 µM) | relative viability ([2]; first compound 0.1581 µM) | relative viability ([2]; first compound 0.5 µM) | relative viability ([3]; first compound 0.2 µM) | relative viability ([3]; first compound 0.6325 µM) | relative viability ([3]; first compound 2 µM) | relative viability ([3]; first compound 6.325 µM) | relative viability ([3]; first compound 20 µM) |
| --- | --- | --- | --- | --- | --- | --- | --- | --- | --- | --- | --- | --- | --- | --- | --- | --- | --- | --- | --- | --- |
| A-427 | 1.02 | 1.04 | 0.89 | 0.943 | 0.941 | 0.802 | 0.745 | 0.712 | 0.485 | 0.315 | 0.199 | 0.206 | 0.183 | 0.159 | 0.144 | 0.884 | 0.838 | 0.855 | 0.828 | 0.89 |
| RERF-LC-KJ | 0.474 | 0.49 | 0.473 | 0.449 | 0.511 | 1.13 | 1.07 | 0.961 | 0.952 | 0.399 | 0.489 | 0.592 | 0.44 | 0.433 | 0.284 | 0.735 | 0.723 | 0.713 | 0.645 | 0.675 |
| LCLC-97TM1 | 0.175 | 0.178 | 0.167 | 0.165 | 0.187 |  | 0.456 | 0.299 | 0.185 | 0.188 | 0.317 | 0.177 | 0.0893 | 0.133 | 0.171 | 0.845 | 0.818 | 0.757 | 0.631 | 0.66 |
| BEN | 0.82 | 0.781 | 1.03 | 0.662 | 0.657 | 1.24 | 1.07 | 1.1 | 0.853 | 0.521 | 0.561 | 0.53 | 0.428 | 0.377 | 0.217 | 0.64 | 0.537 | 0.661 | 0.566 | 0.535 |
| NCI-H2023 | 0.239 | 0.305 | 0.263 | 0.175 | 0.218 | 0.519 | 0.493 | 0.578 | 0.364 | 0.18 | 0.386 | 0.554 | 0.357 | 0.269 | 0.0989 | 0.722 | 0.67 | 0.727 | 0.582 | 0.539 |
| LC-2-ad | 0.272 | 0.298 | 0.268 | 0.25 | 0.287 | 0.82 | 0.823 | 0.832 | 0.55 | 0.28 | 0.441 | 0.498 | 0.442 | 0.393 | 0.289 | 0.696 | 0.745 | 0.711 | 0.647 | 0.64 |
| NCI-H647 | 0.19 | 0.158 | 0.204 | 0.158 | 0.213 | 0.67 | 0.67 | 0.186 | 0.211 | 0.108 | 0.375 | 0.328 | 0.188 | 0.124 | 0.126 | 0.44 | 0.539 | 0.398 | 0.423 | 0.774 |
| NCI-H1755 | 0.436 | 0.413 | 0.484 | 0.369 | 0.387 | 0.953 | 0.944 | 0.753 | 0.628 | 0.373 | 0.607 | 0.693 | 0.589 | 0.461 | 0.372 | 0.725 | 0.857 | 0.745 | 0.777 | 0.716 |
| EPLC-272H | 0.351 | 0.468 | 0.334 | 0.301 | 0.373 | 0.58 | 0.53 | 0.503 | 0.359 | 0.108 | 0.297 | 0.282 | 0.322 | 0.231 | 0.128 | 0.464 | 0.384 | 0.615 | 0.318 | 0.358 |
| NCI-H1437 | 0.286 | 0.362 | 0.353 | 0.252 | 0.311 | 0.671 | 0.662 | 0.571 | 0.67 | 0.553 | 0.451 | 0.438 | 0.373 | 0.309 | 0.408 | 0.91 | 0.853 | 0.837 | 0.701 | 0.866 |
| EKVX | 0.394 | 0.347 | 0.453 |  | 0.389 | 0.941 |  | 0.947 | 1.07 | 0.641 | 0.345 | 0.432 | 0.417 | 0.378 | 0.395 | 0.893 | 0.625 | 0.873 |  | 0.678 |
| NCI-H1651 | 0.582 | 0.666 | 0.778 | 0.495 | 0.58 | 0.166 | 0.199 | 0.17 | 0.169 | 0.147 | 0.706 | 0.756 | 0.771 | 0.694 | 0.492 | 0.553 | 0.63 | 0.694 | 0.509 | 0.558 |
| HCC-15 | 0.221 | 0.203 | 0.218 | 0.214 | 0.217 | 0.863 | 0.756 | 0.782 | 0.777 | 0.167 | 0.598 | 0.599 | 0.232 | 0.235 | 0.107 | 0.876 | 0.846 | 0.842 | 0.772 | 0.743 |
| LCLC-103H | 0.477 | 0.444 | 0.447 | 0.433 | 0.47 | 0.872 | 0.845 | 0.719 | 0.655 | 0.529 | 0.526 | 0.595 | 0.384 | 0.424 | 0.209 | 0.805 | 0.842 | 0.859 | 0.698 | 0.765 |
| NCI-H23 | 0.781 | 0.641 | 0.859 | 0.453 | 0.71 | 0.327 | 0.295 | 0.291 | 0.301 | 0.203 | 0.492 | 0.343 | 0.3 | 0.439 | 0.237 | 0.662 | 0.628 | 0.702 | 0.564 | 0.591 |
| NCI-H596 | 0.5 | 0.477 | 0.527 | 0.526 | 0.505 | 0.646 | 0.669 | 0.61 | 0.66 | 0.696 | 0.885 | 1.16 | 0.746 | 1.06 | 0.955 | 0.532 | 0.469 | 0.609 | 0.612 | 0.727 |
